Experimental findings from ChEMBL document CHEMBL1201862, “PubChem BioAssay data set” (2004) are described below.

Test systems include XF498; RXF 631; DLD-1; DMS-273; HOP-18; M19-MEL; KM-20L2; SNB-78; Hs-578T.
Common to all, as to assay: NCI tumour cell line growth inhibition, 48 h

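Compound exposure: 48 hours, 5 concentrations, 96-well plates. Abbreviation: GI50, concentration required for 50% inhibition of growth.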 The source made the active and inactive calls. No stated cut-off is given here; in the data, active = GI50 up to about 1.1 µM and inactive = higher. Bounds are passed on as bounds.

As to `O=c1[nH]c2cc(-c3ccccc3)nc-2nn1-c1c(Cl)cc(Cl)cc1Cl`, the GI50 with XF498 is 27.9 µM (inactive); in the assay with RXF 631, 46 µM (inactive); with DLD-1, 37.5 µM (inactive); with DMS-273 it was 37.3 µM (inactive); in the assay with HOP-18 it was 18.8 µM (inactive); with M19-MEL, 22.8 µM (inactive). Moreover, the figures for the GI50 with KM-20L2 and with SNB-78 were 25.8 µM (inactive) and 37.5 µM (inactive), respectively.

As for `C[C@]12CC[C@H](OC(=O)Nc3ccccc3)CC1=CC[C@@H]1C2CC[C@]2(C)/C(=N/OC(=O)Nc3ccccc3)CCC12` (stereo partly drawn), the GI50 is 1.75 µM (inactive) in the assay with XF498; 6.37 µM (inactive) in the assay with RXF 631; 37.3 µM (inactive) in the assay with DMS-273; 2.4 µM (inactive) with HOP-18; > 100 µM (inactive) with M19-MEL; 3.2 µM (inactive) with KM-20L2. Besides, the GI50 with SNB-78 is > 100 µM (inactive).

For the compound `COCCCNC(=O)C1C(=O)C(=O)N(CCCOC)C1=O` (stereo not drawn), the GI50 in the assay with RXF 631, in the assay with DLD-1, with DMS-273, with HOP-18, in the assay on M19-MEL and in the assay on KM-20L2 was > 100 µM (inactive) in each case. Also, the GI50 in the assay on SNB-78 was > 100 µM (inactive).

As to `COc1ccc2c(c1)[n+]([O-])c(-c1nc3ccccc3s1)c(N)[n+]2[O-]`, the GI50 was 88.5 µM (inactive) in the assay on RXF 631; 69.2 µM (inactive) in the assay with DLD-1; > 100 µM (inactive) in the assay with DMS-273; > 100 µM (inactive) in the assay on HOP-18; 49.7 µM (inactive) in the assay with M19-MEL; > 100 µM (inactive) in the assay on KM-20L2. The GI50 with SNB-78 is > 100 µM (inactive).

For the compound `CC(=O)NC(CCCCN(Cc1ccccc1)C(=O)N(C)N=O)C(=O)NCc1ccccc1` (stereo not drawn), the GI50 in the assay on XF498 is > 100 µM (inactive); in the assay on RXF 631, > 100 µM (inactive); in the assay with DLD-1, > 100 µM (inactive); in the assay with DMS-273, 97.3 µM (inactive); in the assay on M19-MEL it was > 100 µM (inactive); in the assay with KM-20L2 it was > 100 µM (inactive). Further, the GI50 with SNB-78 is > 100 µM (inactive).

For the compound `N#CC(/C(=N/NC(=O)C(=O)NN)C(=O)NC12CC3CC(CC(C3)C1)C2)c1ccccc1` (stereo not drawn), the GI50 in the assay on RXF 631, in the assay on DLD-1, in the assay with DMS-273, in the assay on HOP-18, in the assay on M19-MEL and in the assay on KM-20L2 was > 100 µM (inactive) each time. Also, the GI50 in the assay with SNB-78 is > 100 µM (inactive).

With `COC1(OC)CC2C=C(S(=O)(=O)c3ccccc3)C1N(Cc1ccccc1)C2=O` (stereo not drawn), the GI50 with XF498 is 19.1 µM (inactive); with RXF 631, 26.3 µM (inactive); with DLD-1, 24.3 µM (inactive); with HOP-18, > 100 µM (inactive); with M19-MEL it was 32.4 µM (inactive); in the assay with KM-20L2, 28.9 µM (inactive). Moreover, the GI50 in the assay on SNB-78 was 21.2 µM (inactive).

As for `COc1ccc(/C=c2\sc3nnc(CCC(=O)Nc4cccc(C(F)(F)F)c4)n3c2=O)cc1`, the GI50 in the assay on XF498 was > 100 µM (inactive); with RXF 631, > 100 µM (inactive); in the assay with DLD-1 it was > 100 µM (inactive); with DMS-273, > 100 µM (inactive); in the assay with HOP-18 it was 50.4 µM (inactive); with M19-MEL it was > 84.1 µM (inactive). Also, the GI50 in the assay with KM-20L2 and in the assay on SNB-78 was > 100 µM (inactive) throughout.

For the compound `COc1cc(Cl)c2c3c(c(C(C)=O)oc13)CCC2`, the GI50 in the assay with RXF 631, in the assay with DLD-1, in the assay on DMS-273, in the assay with HOP-18, in the assay with M19-MEL and with KM-20L2 was > 100 µM (inactive) each time. In the assay with SNB-78, the GI50 was > 100 µM (inactive).

As to `N=C(N)N/N=C(/CC1OC(=O)c2ccccc21)c1ccc2ccccc2c1` (stereo not drawn), the GI50 with XF498 is 7.71 µM (inactive); with RXF 631, 21.4 µM (inactive); with DLD-1, 14 µM (inactive); with DMS-273, 21.6 µM (inactive); in the assay with HOP-18 it was 18.5 µM (inactive); in the assay on M19-MEL it was 16.2 µM (inactive). The GI50 with KM-20L2 was 24.7 µM (inactive); with SNB-78 it was > 100 µM (inactive).

As to `C[C@]12Cc3cn[nH]c3C(=O)C1CC[C@@H]1C2CC[C@@]2(C)C1CC[C@]2(C)O` (stereo partly drawn), the GI50 in the assay on XF498, in the assay on RXF 631, with DLD-1, with DMS-273, in the assay on HOP-18 and in the assay with M19-MEL was > 100 µM (inactive) throughout. In addition, the GI50 with KM-20L2 and in the assay with SNB-78 was > 100 µM (inactive) each time.

With `CC(O)C(NC(=O)C(CS)NC(=O)C(CO)NC(=O)C(CCCCN)NC(=O)C(Cc1c[nH]c2ccccc12)NC(=O)C(Cc1ccc(O)cc1)NC(=O)C(CS)NC(=O)C(N)Cc1ccccc1)C(N)=O` (stereo not drawn), the GI50 in the assay with XF498 is 21.6 µM (inactive); in the assay on RXF 631, 19.1 µM (inactive); in the assay on DLD-1, 22.1 µM (inactive); with Hs-578T it was > 25 µM (inactive); with DMS-273, 20.9 µM (inactive); with HOP-18, 22.6 µM (inactive). Besides, the GI50 with M19-MEL was 26 µM (inactive); in the assay with KM-20L2 it was 23.9 µM (inactive); in the assay with SNB-78, 31.3 µM (inactive).

For the compound `O=C(Cc1nc2ccccc2o1)C(=O)Nc1cccc(C(F)(F)F)c1`, the GI50 in the assay on RXF 631 is > 100 µM (inactive); in the assay on DLD-1, > 100 µM (inactive); in the assay on DMS-273, > 100 µM (inactive); in the assay with HOP-18 it was 45 µM (inactive); with M19-MEL, > 100 µM (inactive); in the assay on KM-20L2, > 100 µM (inactive). Moreover, the GI50 in the assay on SNB-78 is > 100 µM (inactive).

Turning to `COc1cc(/C=C\c2ccc(Br)cc2)cc(OC)c1OC`, the GI50 in the assay on XF498 was 0.000678 µM (active); in the assay on RXF 631 it was 0.01 µM (active); in the assay with DLD-1, 0.00324 µM (active); in the assay on DMS-273 it was 0.00332 µM (active); in the assay on HOP-18 it was 0.000721 µM (active); with M19-MEL, 0.00524 µM (active). Moreover, the GI50 in the assay with KM-20L2 was 0.00033 µM (active); in the assay with SNB-78 it was 0.000305 µM (active).

Take `CC[C@@H](C(=O)[C@@H](C)[C@@H](O)[C@H](C)CCc1ccc(C)c(O)c1C(=O)O)[C@H]1O[C@](CC)([C@H]2CC[C@](O)(CC)[C@H](C)O2)C[C@@H]1C` [LASALOCID A SODIUM]: the GI50 with XF498 was 1.25 µM (inactive); in the assay with RXF 631, 0.741 µM (active); in the assay on DLD-1, 3.61 µM (inactive); in the assay with DMS-273, 1.71 µM (inactive); in the assay with HOP-18, 3.08 µM (inactive); with M19-MEL it was 1.65 µM (inactive). The GI50 is 1.78 µM (inactive) in the assay with KM-20L2 and 3.13 µM (inactive) with SNB-78.
